Target: Concanavalin A (Con A), as Con A-ALP conjugate (Canavalia ensiformis, UniProt P02866)
Assay: competitive electrochemical lectin assay
Type: binding

Concanavalin A (Con A), as Con A-ALP conjugate, sequence (P02866 164-281 limits assumed): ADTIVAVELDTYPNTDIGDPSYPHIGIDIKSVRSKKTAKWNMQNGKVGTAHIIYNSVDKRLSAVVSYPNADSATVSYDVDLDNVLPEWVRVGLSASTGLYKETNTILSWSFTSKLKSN
Concanavalin A (Con A), as Con A-ALP conjugate, sequence (P02866 30-148 limits assumed): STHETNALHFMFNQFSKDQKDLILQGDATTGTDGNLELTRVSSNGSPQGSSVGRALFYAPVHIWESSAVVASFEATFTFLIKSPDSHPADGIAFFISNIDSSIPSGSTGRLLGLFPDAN

Question: `CO[C@H]1O[C@H](CO)[C@@H](O)[C@H](O)[C@@H]1O` [methyl α-D-mannopyranoside] was tested. Which IC50 did it give?
Answer: ~90 µM
